Data from publication PMC5469750, “Antibacterial and detoxifying activity of NZ17074 analogues with multi-layers of selective antimicrobial actions against Escherichia coli and Salmonella enteritidis” (Scientific Reports, 2017).
Converted amounts (≈) assume the structure as drawn. Where a SMILES comes first, the peptide text is derived from it. Bridges are numbered along the chain shown (N, C = ends).

Columns and labels:
S. enteritidis CVCC3377 [1] = format: cell-based, Salmonella enteritidis; conditions: CVCC3377
Description: (§1) The antimicrobial activity of peptides was determined by the microbroth dilution method. The bacterial strains were incubated in Mueller-Hinton (MH) medium at 37 °C overnight until the mid-log phase (OD600 nm reading of 0.5). Bacteria were diluted to 1 × 10^5 CFU/ml and added into 96-well plates, followed by the addition of serial dilutions of peptides (from 0.0625 to 128 μg/ml). The plates were incubated at 37 °C for 18–24 h. The MIC value was determined as the lowest peptide concentration at which no bacterial growth was observed. All tests were conducted in triplicate.

[2] = tested on: Candida albicans CGMCC2.2411; format: cell-based; conditions: CGMCC2.2411
Escherichia coli CVCC195 = format: cell-based; conditions: CVCC195
Description: as §1

S. suis CVCC606 = format: cell-based
Description: as §1

S. pullorum CVCC1802 = format: cell-based; conditions: CVCC1802
Description: as §1

[3] = tested on: Enterococcus faecium CMCC1.2136; format: cell-based; conditions: CMCC1.2136
Description: as §1

[4] = tested on: Salmonella typhimurium ATCC14028; format: cell-based; conditions: ATCC14028
Description: as §1

[5] = tested on: Pseudomonas aeruginosa CICC10419; format: cell-based; conditions: CICC10419
Description: as §1

S. choleraesuis CVCC503 = format: cell-based; conditions: CVCC503
Description: as §1

S. pullorum CVCC1789 = format: cell-based; conditions: CVCC1789
Description: as §1

[6] = tested on: Staphylococcus aureus ATCC43300; format: cell-based; conditions: ATCC43300
Description: as §1

[7] = tested on: Bacillus subtilis ATCC6633; format: cell-based; conditions: ATCC6633
Description: as §1

S. aureus ATCC25923 = format: cell-based, Staphylococcus aureus; conditions: ATCC25923
Description: as §1

S. enteritidis CVCC3377 [8] = format: cell-based, Salmonella enteritidis; conditions: CVCC3377, 3 h, 1
Description: (§2) Radioactive precursors were added into cells (1 μCi/ml) and shaken at 37 °C for 20 min. Ice-cold 25% trichloroacetic acid (TCA) was added and placed on ice for 30 min. The cells were centrifuged and washed twice with ice-cold 25% TCA. After drying, the samples were mixed with scintillation fluid and counted for their radioactivity using a MicroBeta 1450 scintillation counter (Perkin Elmer)[62].

E. coli CVCC1515 = format: cell-based, Escherichia coli; conditions: CVCC1515
Description: as §1

E. coli CVCC195 = format: cell-based, Escherichia coli; conditions: CVCC195, 3 h, 1
Description: as §2

P. aeruginosa CICC21630 = format: cell-based, Pseudomonas aeruginosa; conditions: CICC21630
Description: as §1

[9] = LPS binding, BODIPY-TR-cadaverine (BC) displacement; conditions: negative control; 50 mM Tris buffer pH 7.4
Description: Equal volumes of 40 μg/ml LPS and 10 μM BC in 50 mM Tris buffer (pH 7.4) were mixed, added into 96-well plates and incubated in the dark for 4 h at room temperature. […] Fluorescence was then measured using a microplate reader (excitation/emission, 580/620 nm). The occupancy rate was calculated by the following equation: BC displacement rate (%) = (1 − (F0 − F)/(F0 − Fmax)) × 100, wherein F0 is the fluorescence intensity of the solution of BC alone; Fmax is the fluorescence intensity in the presence of LPS at the saturation concentration, and F is the intensity of LPS:BC mixtures at varying displacer concentrations.

[10] = tested on: Listeria ivanovii ATCC19119; format: cell-based; conditions: ATCC19119
Description: as §1

SMILES | MIC (S. enteritidis CVCC3377 [1]) | MIC [2] | MIC (Escherichia coli CVCC195) | MIC (S. suis CVCC606) | MIC (S. pullorum CVCC1802) | MIC [3] | MIC [4] | MIC [5] | MIC (S. choleraesuis CVCC503) | MIC (S. pullorum CVCC1789) | MIC [6] | MIC [7] | MIC (S. aureus ATCC25923) | inhibition of DNA synthesis (3H-thymidine) (S. enteritidis CVCC3377 [8]) | MIC (E. coli CVCC1515) | inhibition of 3H-thymidine incorporation (DNA synthesis) (E. coli CVCC195) | MIC (P. aeruginosa CICC21630) | MIC [10] | further results
CC(C)[C@@H]1NC(=O)CNC(=O)[C@H](CC(N)=O)NC(=O)[C@H](CCCNC(=N)N)NC(=O)[C@H](Cc2ccc(O)cc2)NC(=O)[C@H](C(C)C)NC(=O)[C@@H](NC(=O)[C@@H](NC(=O)[C@H](CC(N)=O)NC(=O)[C@H](Cc2c[nH]c3ccccc23)NC(=O)[C@H](C)NC(=O)[C@H](Cc2ccccc2)NC(=O)CN)C(C)C)CSSC[C@@H](C(=O)N[C@@H](Cc2c[nH]cn2)C(=O)N[C@@H](CCCNC(=N)N)C(=O)N[C@@H](CCCNC(=N)N)C(=O)N[C@@H](C)C(=O)N[C@@H](CC(N)=O)C(=O)O)NC(=O)[C@H](C(C)C)NC(=O)[C@H](CCCNC(=N)N)NC1=O [N6] (H-GFAWNVCVYRNGVRVCHRRAN-OH; disulfide 7-16) | 0.25 µg/mL (≈ 0.101 µM) | 64 µg/mL (≈ 25.8 µM) | 0.5 µg/mL (≈ 0.202 µM) | 16 µg/mL (≈ 6.46 µM) | 0.5 µg/mL (≈ 0.202 µM) | 4 µg/mL (≈ 1.62 µM) | 2 µg/mL (≈ 0.808 µM) | 8 µg/mL (≈ 3.23 µM) | 2 µg/mL (≈ 0.808 µM) | 0.5 µg/mL (≈ 0.202 µM) | 16 µg/mL (≈ 6.46 µM) | 0.5 µg/mL (≈ 0.202 µM) | 0.25 µg/mL (≈ 0.101 µM) | 61.8% | 1 µg/mL (≈ 0.404 µM) | 43.8% | 4 µg/mL (≈ 1.62 µM) | – | inhibition of RNA biosynthesis (3H-uridine) (S. enteritidis CVCC3377 [8]): 5.7%
CC1(C)S[C@@H]2[C@H](NC(=O)[C@H](N)c3ccccc3)C(=O)N2[C@H]1C(=O)O [ampicillin] | – | – | – | – | – | – | – | – | – | – | – | – | – | – | – | – | – | – | BC displacement / binding to LPS [9]: did not displace BC
CC(C)[C@@H]1NC(=O)[C@H](C)NC(=O)[C@H](CC(N)=O)NC(=O)[C@H](CCCNC(=N)N)NC(=O)[C@H](Cc2ccc(O)cc2)NC(=O)[C@H](C(C)C)NC(=O)[C@@H]2CSSC[C@H](NC(=O)[C@H](C(C)C)NC(=O)[C@H](CCCNC(=N)N)NC1=O)C(=O)N[C@@H](Cc1c[nH]cn1)C(=O)N[C@@H](CCCNC(=N)N)C(=O)N[C@@H](CCCNC(=N)N)C(=O)N[C@H](C(=O)N[C@@H](CC(N)=O)C(=O)O)CSSC[C@H](NC(=O)[C@H](Cc1ccccc1)NC(=O)[C@H](C)N)C(=O)N[C@@H](Cc1c[nH]c3ccccc13)C(=O)N[C@@H](CC(N)=O)C(=O)N[C@@H](C(C)C)C(=O)N2 [N2] (H-AFCWNVCVYRNAVRVCHRRCN-OH; disulfide 3-20, 7-16) | 0.125 µg/mL (≈ 0.0487 µM) | 32 µg/mL (≈ 12.5 µM) | 0.25 µg/mL (≈ 0.0974 µM) | 16 µg/mL (≈ 6.24 µM) | 0.25 µg/mL (≈ 0.0974 µM) | 4 µg/mL (≈ 1.56 µM) | 1 µg/mL (≈ 0.39 µM) | 2 µg/mL (≈ 0.779 µM) | – | 0.5 µg/mL (≈ 0.195 µM) | 16 µg/mL (≈ 6.24 µM) | 0.5 µg/mL (≈ 0.195 µM) | 0.25 µg/mL (≈ 0.0974 µM) | 35.5% | 0.5 µg/mL (≈ 0.195 µM) | 28.6% | 2 µg/mL (≈ 0.779 µM) | 4 µg/mL (≈ 1.56 µM) | inhibition of protein synthesis (3H-leucine) (S. enteritidis CVCC3377 [8]): 17.0%; inhibition of 3H-uridine incorporation (RNA synthesis) (E. coli CVCC195): 18.7%
CC(C)[C@@H]1NC(=O)CNC(=O)[C@H](CC(N)=O)NC(=O)[C@H](CCCNC(=N)N)NC(=O)[C@H](Cc2ccc(O)cc2)NC(=O)[C@H](C(C)C)NC(=O)[C@@H]2CSSC[C@H](NC(=O)[C@H](C(C)C)NC(=O)[C@H](CCCNC(=N)N)NC1=O)C(=O)N[C@@H](Cc1c[nH]cn1)C(=O)N[C@@H](CCCNC(=N)N)C(=O)N[C@@H](CCCNC(=N)N)C(=O)N[C@H](C(=O)N[C@@H](CC(N)=O)C(=O)O)CSSC[C@H](NC(=O)[C@H](Cc1ccccc1)NC(=O)CN)C(=O)N[C@@H](CCCCN)C(=O)N[C@@H](C)C(=O)N[C@@H](C(C)C)C(=O)N2 [N3] (H-GFCKAVCVYRNGVRVCHRRCN-OH; disulfide 3-20, 7-16) | 0.5 µg/mL (≈ 0.205 µM) | >16 µg/mL | 1 µg/mL (≈ 0.41 µM) | 16 µg/mL (≈ 6.57 µM) | 1 µg/mL (≈ 0.41 µM) | 8 µg/mL (≈ 3.28 µM) | 4 µg/mL (≈ 1.64 µM) | >16 µg/mL | – | 2 µg/mL (≈ 0.821 µM) | >16 µg/mL | 2 µg/mL (≈ 0.821 µM) | 0.25 µg/mL (≈ 0.103 µM) | – | 1 µg/mL (≈ 0.41 µM) | – | 16 µg/mL (≈ 6.57 µM) | 8 µg/mL (≈ 3.28 µM) | –
CC(C)[C@@H]1NC(=O)CNC(=O)[C@H](CC(N)=O)NC(=O)[C@H](CCCNC(=N)N)NC(=O)[C@H](Cc2ccc(O)cc2)NC(=O)[C@H](C(C)C)NC(=O)[C@@H]2CSSC[C@H](NC(=O)[C@H](C(C)C)NC(=O)[C@H](CCCNC(=N)N)NC1=O)C(=O)N[C@@H](Cc1c[nH]cn1)C(=O)N[C@@H](CCCNC(=N)N)C(=O)N[C@@H](CCCNC(=N)N)C(=O)N[C@H](C(=O)N[C@@H](CC(N)=O)C(=O)O)CSSC[C@H](NC(=O)[C@H](Cc1ccccc1)NC(=O)CNC(=O)[C@@H](N)Cc1c[nH]c3ccccc13)C(=O)N[C@@H](Cc1c[nH]c3ccccc13)C(=O)N[C@@H](CC(N)=O)C(=O)N[C@@H](C(C)C)C(=O)N2 [N4] (H-WGFCWNVCVYRNGVRVCHRRCN-OH; disulfide 4-21, 8-17) | 0.25 µg/mL (≈ 0.0918 µM) | – | 1 µg/mL (≈ 0.367 µM) | – | 2 µg/mL (≈ 0.734 µM) | – | 2 µg/mL (≈ 0.734 µM) | – | – | 1 µg/mL (≈ 0.367 µM) | 8 µg/mL (≈ 2.94 µM) | 1 µg/mL (≈ 0.367 µM) | 1 µg/mL (≈ 0.367 µM) | – | 1 µg/mL (≈ 0.367 µM) | – | 4 µg/mL (≈ 1.47 µM) | – | –
CC(C)[C@@H]1NC(=O)CNC(=O)[C@H](CC(N)=O)NC(=O)[C@H](CCCNC(=N)N)NC(=O)[C@H](Cc2ccc(O)cc2)NC(=O)[C@H](C(C)C)NC(=O)[C@H](C)NC(=O)[C@H](C(C)C)NC(=O)[C@H](CC(N)=O)NC(=O)[C@H](Cc2c[nH]c3ccccc23)NC(=O)[C@@H](NC(=O)[C@H](Cc2ccccc2)NC(=O)CN)CSSC[C@@H](C(=O)N[C@@H](CC(N)=O)C(=O)O)NC(=O)[C@H](CCCNC(=N)N)NC(=O)[C@H](CCCNC(=N)N)NC(=O)[C@H](Cc2c[nH]cn2)NC(=O)[C@H](C)NC(=O)[C@H](C(C)C)NC(=O)[C@H](CCCNC(=N)N)NC1=O [N7] (H-GFCWNVAVYRNGVRVAHRRCN-OH; disulfide 3-20) | 0.5 µg/mL (≈ 0.202 µM) | >16 µg/mL | 2 µg/mL (≈ 0.808 µM) | 8 µg/mL (≈ 3.23 µM) | 4 µg/mL (≈ 1.62 µM) | 2 µg/mL (≈ 0.808 µM) | 8 µg/mL (≈ 3.23 µM) | >64 µg/mL | 16 µg/mL (≈ 6.46 µM) | 4 µg/mL (≈ 1.62 µM) | >64 µg/mL | 2 µg/mL (≈ 0.808 µM) | 0.5 µg/mL (≈ 0.202 µM) | – | 2 µg/mL (≈ 0.808 µM) | – | >64 µg/mL | 2 µg/mL (≈ 0.808 µM) | –
